# Numbers after ± are expanded uncertainties.
# Conditions: Liquid
smiles,measurement,setting,value
CCCCC(C)O (configuration not stated) [2-hexanol],mass density,"313.13 K, 1010 kPa",799.26 ± 0.62 kg/m3
same,mass density,"313.13 K, 2006 kPa",800.05 ± 0.64 kg/m3
same,mass density,"313.13 K, 2999 kPa",800.83 ± 0.66 kg/m3
same,mass density,"313.13 K, 4008 kPa",801.59 ± 0.68 kg/m3
same,mass density,"313.13 K, 4999 kPa",802.35 ± 0.7 kg/m3
same,mass density,"313.13 K, 5986 kPa",803.12 ± 0.72 kg/m3
same,mass density,"313.13 K, 7000 kPa",803.86 ± 0.74 kg/m3
same,mass density,"313.13 K, 8010 kPa",804.64 ± 0.77 kg/m3
same,mass density,"313.13 K, 9026 kPa",805.38 ± 0.79 kg/m3
same,mass density,"313.13 K, 10004 kPa",806.09 ± 0.81 kg/m3
same,mass density,"313.13 K, 11005 kPa",806.84 ± 0.83 kg/m3
same,mass density,"313.13 K, 12001 kPa",807.56 ± 0.85 kg/m3
same,mass density,"313.13 K, 13010 kPa",808.28 ± 0.88 kg/m3
same,mass density,"313.13 K, 14002 kPa",808.98 ± 0.9 kg/m3
same,mass density,"313.13 K, 14998 kPa",809.67 ± 0.92 kg/m3
same,mass density,"313.13 K, 16001 kPa",810.39 ± 0.94 kg/m3
same,mass density,"313.13 K, 17006 kPa",811.08 ± 0.97 kg/m3
same,mass density,"313.13 K, 18000 kPa",811.7 ± 0.99 kg/m3
same,mass density,"313.13 K, 19005 kPa",812.39 ± 1 kg/m3
same,mass density,"313.13 K, 20015 kPa",813.1 ± 1 kg/m3
same,mass density,"313.13 K, 21029 kPa",813.74 ± 1.1 kg/m3
same,mass density,"313.13 K, 22004 kPa",814.4 ± 1.1 kg/m3
same,mass density,"323.09 K, 1037 kPa",791 ± 0.63 kg/m3
same,mass density,"323.09 K, 2000 kPa",791.79 ± 0.65 kg/m3
same,mass density,"323.09 K, 3010 kPa",792.63 ± 0.67 kg/m3
same,mass density,"323.09 K, 4029 kPa",793.48 ± 0.69 kg/m3
same,mass density,"323.09 K, 5004 kPa",794.27 ± 0.71 kg/m3
same,mass density,"323.09 K, 6020 kPa",795.1 ± 0.74 kg/m3
same,mass density,"323.09 K, 7007 kPa",795.84 ± 0.76 kg/m3
same,mass density,"323.09 K, 8009 kPa",796.68 ± 0.78 kg/m3
same,mass density,"323.09 K, 9017 kPa",797.48 ± 0.81 kg/m3
same,mass density,"323.09 K, 10003 kPa",798.25 ± 0.83 kg/m3
same,mass density,"323.09 K, 11001 kPa",799 ± 0.85 kg/m3
same,mass density,"323.09 K, 12000 kPa",799.77 ± 0.88 kg/m3
same,mass density,"323.09 K, 13021 kPa",800.56 ± 0.9 kg/m3
same,mass density,"323.09 K, 14001 kPa",801.3 ± 0.92 kg/m3
same,mass density,"323.09 K, 15002 kPa",802 ± 0.94 kg/m3
same,mass density,"323.09 K, 16000 kPa",802.74 ± 0.97 kg/m3
same,mass density,"323.09 K, 17004 kPa",803.48 ± 0.99 kg/m3
same,mass density,"323.09 K, 18008 kPa",804.21 ± 1 kg/m3
same,mass density,"323.09 K, 19001 kPa",804.9 ± 1.1 kg/m3
same,mass density,"323.09 K, 20011 kPa",805.62 ± 1.1 kg/m3
same,mass density,"323.09 K, 21003 kPa",806.31 ± 1.1 kg/m3
same,mass density,"323.09 K, 22004 kPa",807.01 ± 1.1 kg/m3
same,mass density,"333.04 K, 1055 kPa",782.56 ± 0.64 kg/m3
same,mass density,"333.04 K, 2007 kPa",783.43 ± 0.66 kg/m3
same,mass density,"333.04 K, 3005 kPa",784.28 ± 0.68 kg/m3
same,mass density,"333.04 K, 4007 kPa",785.21 ± 0.71 kg/m3
same,mass density,"333.04 K, 5015 kPa",786.06 ± 0.73 kg/m3
same,mass density,"333.04 K, 6009 kPa",786.93 ± 0.75 kg/m3
same,mass density,"333.04 K, 7006 kPa",787.77 ± 0.78 kg/m3
same,mass density,"333.04 K, 7998 kPa",788.61 ± 0.8 kg/m3
same,mass density,"333.04 K, 9006 kPa",789.47 ± 0.82 kg/m3
same,mass density,"333.04 K, 10004 kPa",790.32 ± 0.85 kg/m3
same,mass density,"333.04 K, 11007 kPa",791.11 ± 0.87 kg/m3
same,mass density,"333.04 K, 12012 kPa",791.93 ± 0.9 kg/m3
same,mass density,"333.04 K, 13003 kPa",792.72 ± 0.92 kg/m3
same,mass density,"333.04 K, 14008 kPa",793.51 ± 0.95 kg/m3
same,mass density,"333.04 K, 15005 kPa",794.3 ± 0.97 kg/m3
same,mass density,"333.04 K, 16001 kPa",795.06 ± 1 kg/m3
same,mass density,"333.04 K, 17006 kPa",795.85 ± 1 kg/m3
same,mass density,"333.04 K, 18010 kPa",796.61 ± 1.1 kg/m3
same,mass density,"333.04 K, 19002 kPa",797.35 ± 1.1 kg/m3
same,mass density,"333.04 K, 20000 kPa",798.08 ± 1.1 kg/m3
same,mass density,"333.04 K, 21000 kPa",798.82 ± 1.1 kg/m3
same,mass density,"333.04 K, 22004 kPa",799.56 ± 1.2 kg/m3
same,mass density,"342.98 K, 1032 kPa",774.05 ± 0.65 kg/m3
same,mass density,"342.98 K, 2015 kPa",775.01 ± 0.67 kg/m3
same,mass density,"342.98 K, 3012 kPa",775.95 ± 0.69 kg/m3
same,mass density,"342.98 K, 4017 kPa",776.87 ± 0.72 kg/m3
same,mass density,"342.98 K, 5013 kPa",777.79 ± 0.74 kg/m3
same,mass density,"342.98 K, 6012 kPa",778.72 ± 0.77 kg/m3
same,mass density,"342.98 K, 7025 kPa",779.62 ± 0.79 kg/m3
same,mass density,"342.98 K, 8000 kPa",780.47 ± 0.82 kg/m3
same,mass density,"342.98 K, 9000 kPa",781.35 ± 0.84 kg/m3
same,mass density,"342.98 K, 9996 kPa",782.25 ± 0.87 kg/m3
same,mass density,"342.98 K, 11020 kPa",783.12 ± 0.89 kg/m3
same,mass density,"342.98 K, 11999 kPa",783.92 ± 0.92 kg/m3
same,mass density,"342.98 K, 12996 kPa",784.76 ± 0.94 kg/m3
same,mass density,"342.98 K, 14007 kPa",785.6 ± 0.97 kg/m3
same,mass density,"342.98 K, 15003 kPa",786.41 ± 1 kg/m3
same,mass density,"342.98 K, 16005 kPa",787.17 ± 1 kg/m3
same,mass density,"342.98 K, 17002 kPa",787.98 ± 1.1 kg/m3
same,mass density,"342.98 K, 18010 kPa",788.76 ± 1.1 kg/m3
same,mass density,"342.98 K, 19005 kPa",789.49 ± 1.1 kg/m3
same,mass density,"342.98 K, 20010 kPa",790.27 ± 1.1 kg/m3
same,mass density,"342.98 K, 21006 kPa",791 ± 1.2 kg/m3
same,mass density,"342.98 K, 22005 kPa",791.75 ± 1.2 kg/m3
same,mass density,"352.86 K, 1053 kPa",765.06 ± 0.66 kg/m3
same,mass density,"352.86 K, 2014 kPa",766.05 ± 0.68 kg/m3
same,mass density,"352.86 K, 3019 kPa",767.09 ± 0.71 kg/m3
same,mass density,"352.86 K, 4033 kPa",768.08 ± 0.73 kg/m3
same,mass density,"352.86 K, 4996 kPa",769.01 ± 0.76 kg/m3
same,mass density,"352.86 K, 6006 kPa",770.06 ± 0.78 kg/m3
same,mass density,"352.86 K, 7013 kPa",771.02 ± 0.81 kg/m3
same,mass density,"352.86 K, 8004 kPa",771.95 ± 0.84 kg/m3
same,mass density,"352.86 K, 9035 kPa",772.93 ± 0.86 kg/m3
same,mass density,"352.86 K, 10009 kPa",773.84 ± 0.89 kg/m3
same,mass density,"352.86 K, 11007 kPa",774.75 ± 0.92 kg/m3
same,mass density,"352.86 K, 12007 kPa",775.66 ± 0.94 kg/m3
same,mass density,"352.86 K, 12999 kPa",776.54 ± 0.97 kg/m3
same,mass density,"352.86 K, 14012 kPa",777.47 ± 1 kg/m3
same,mass density,"352.86 K, 15010 kPa",778.33 ± 1 kg/m3
same,mass density,"352.86 K, 16003 kPa",779.21 ± 1.1 kg/m3
same,mass density,"352.86 K, 17002 kPa",780.07 ± 1.1 kg/m3
same,mass density,"352.86 K, 18017 kPa",780.92 ± 1.1 kg/m3
same,mass density,"352.86 K, 19005 kPa",781.75 ± 1.1 kg/m3
same,mass density,"352.86 K, 20014 kPa",782.58 ± 1.2 kg/m3
same,mass density,"352.86 K, 21013 kPa",783.39 ± 1.2 kg/m3
same,mass density,"352.86 K, 22010 kPa",784.18 ± 1.2 kg/m3
same,mass density,"362.73 K, 1075 kPa",754.97 ± 0.67 kg/m3
same,mass density,"362.73 K, 2006 kPa",756.02 ± 0.7 kg/m3
same,mass density,"362.73 K, 3018 kPa",757.16 ± 0.72 kg/m3
same,mass density,"362.73 K, 4034 kPa",758.26 ± 0.75 kg/m3
same,mass density,"362.73 K, 5016 kPa",759.29 ± 0.78 kg/m3
same,mass density,"362.73 K, 6066 kPa",760.41 ± 0.81 kg/m3
same,mass density,"362.73 K, 6998 kPa",761.37 ± 0.83 kg/m3
same,mass density,"362.73 K, 8041 kPa",762.44 ± 0.86 kg/m3
same,mass density,"362.73 K, 9014 kPa",763.43 ± 0.89 kg/m3
same,mass density,"362.73 K, 10001 kPa",764.37 ± 0.91 kg/m3
same,mass density,"362.73 K, 11026 kPa",765.39 ± 0.94 kg/m3
same,mass density,"362.73 K, 12000 kPa",766.35 ± 0.97 kg/m3
same,mass density,"362.73 K, 13010 kPa",767.31 ± 1 kg/m3
same,mass density,"362.73 K, 13999 kPa",768.28 ± 1 kg/m3
same,mass density,"362.73 K, 15006 kPa",769.21 ± 1.1 kg/m3
same,mass density,"362.73 K, 16006 kPa",770.12 ± 1.1 kg/m3
same,mass density,"362.73 K, 17005 kPa",771.02 ± 1.1 kg/m3
same,mass density,"362.73 K, 18000 kPa",771.92 ± 1.2 kg/m3
same,mass density,"362.73 K, 19003 kPa",772.82 ± 1.2 kg/m3
same,mass density,"362.73 K, 20017 kPa",773.7 ± 1.2 kg/m3
same,mass density,"362.73 K, 21006 kPa",774.56 ± 1.2 kg/m3
same,mass density,"362.73 K, 22010 kPa",775.42 ± 1.3 kg/m3

# From the NIST ThermoML archive (doi:10.1021/je700145e)
